Bounds are passed on as bounds.

The source of these data is publication PMC8224985 (European journal of medicinal chemistry, 2020).

The target of one test is T1, human SphK2 (Homo sapiens, UniProt Q9NRA0).
T1 sequence (Q9NRA0 1-654): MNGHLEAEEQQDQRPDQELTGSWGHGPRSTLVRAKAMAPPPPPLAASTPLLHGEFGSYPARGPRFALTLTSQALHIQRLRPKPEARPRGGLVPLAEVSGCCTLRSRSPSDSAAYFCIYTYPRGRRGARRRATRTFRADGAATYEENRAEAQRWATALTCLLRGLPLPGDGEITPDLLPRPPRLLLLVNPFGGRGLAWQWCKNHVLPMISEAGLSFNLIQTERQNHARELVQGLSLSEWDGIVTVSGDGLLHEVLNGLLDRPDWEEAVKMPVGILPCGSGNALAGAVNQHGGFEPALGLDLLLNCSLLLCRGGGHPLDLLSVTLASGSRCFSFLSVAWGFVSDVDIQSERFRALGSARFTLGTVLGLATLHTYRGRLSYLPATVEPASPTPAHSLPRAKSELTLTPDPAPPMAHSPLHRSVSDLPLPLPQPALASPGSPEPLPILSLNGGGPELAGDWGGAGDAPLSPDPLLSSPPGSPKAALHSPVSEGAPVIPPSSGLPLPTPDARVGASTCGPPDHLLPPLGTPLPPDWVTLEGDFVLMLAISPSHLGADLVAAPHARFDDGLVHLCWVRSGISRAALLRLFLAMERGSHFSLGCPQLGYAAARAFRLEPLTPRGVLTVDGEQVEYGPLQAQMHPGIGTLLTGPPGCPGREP
Kind of test: Recombinant hSphK2 activity, single-concentration screen. Conditions: for inhibition at 0.3 µM: read-out: inhibition of hSphK2 activity, compound 0.3 μM.

The test system of test [1] is SphK2. Kind of test: FTY720-P formation in U937 cells treated with FTY720. The test is classed as cell-based. Conditions: 1 μM FTY720, compound 0.1 μM to 1 μM, 2 hours, duplicate.
The next test deals with U937 cells. Kind of test: S1P levels in U937 cells by LC-MS/MS. The test is classed as cell-based. The note with it: 0.1 to 1 μM, 2 hours, duplicate.
Test [2] concerns the target SphK2. Conditions: read-out: SphK2 Ki; cited from earlier work.
A further test concerns the target human SphK1 (Homo sapiens, UniProt Q9NYA1). Kind of test: Recombinant hSphK1 activity, single-concentration screen. The note with it: compound 1 μM.

Sequence of human SphK1 (Q9NYA1 whole entry): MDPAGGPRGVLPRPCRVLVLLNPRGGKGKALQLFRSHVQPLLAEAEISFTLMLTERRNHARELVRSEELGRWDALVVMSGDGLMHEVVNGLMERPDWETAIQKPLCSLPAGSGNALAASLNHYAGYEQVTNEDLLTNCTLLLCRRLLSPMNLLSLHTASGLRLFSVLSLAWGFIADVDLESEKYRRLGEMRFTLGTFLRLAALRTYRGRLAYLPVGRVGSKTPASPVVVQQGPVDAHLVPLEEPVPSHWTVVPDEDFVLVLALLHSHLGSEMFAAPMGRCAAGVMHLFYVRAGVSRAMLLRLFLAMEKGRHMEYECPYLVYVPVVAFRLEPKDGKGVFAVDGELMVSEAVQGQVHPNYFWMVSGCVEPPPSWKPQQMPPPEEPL

In general, inhibition refers to the drop in the measured response relative to a control, in per cent. In the case of `CCCCCCCCCCn1ccc2cc(-c3noc([C@@H]4CCCN4C(=N)N)n3)ccc21` [Compound 6s, (S)-Amino(2-(3-(1-decyl-1H-indol-5-yl)-1,2,4-oxadiazol-5-yl)pyrrolidin-1-yl)methaniminium chloride], the inhibition at 0.3 µM at human SphK2 stood at 70%.
Still for that read-out and setting: for `CCCCCCCCCCn1ccc2c(-c3noc([C@@H]4CCCN4C(=N)N)n3)cccc21` [Compound 6n, (S)-Amino(2-(3-(1-decyl-1H-indol-4-yl)-1,2,4-oxadiazol-5-yl)pyrrolidin-1-yl)methaniminium chloride] the value was 36%.
For the compound `CCCCCCCCCn1ccc2cc(-c3noc([C@@H]4CCCN4C(=N)N)n3)ccc21.Cl` [Compound 6r, (S)-Amino(2-(3-(1-nonyl-1H-indol-5-yl)-1,2,4-oxadiazol-5-yl)pyrrolidin-1-yl)methaniminium chloride], the “FTY720-P levels in cells” value with SphK2 [1] is reported as “concomitant decrease in FTY720-P in a dose dependent manner”. Also, the “S1P levels in cells” value in the test with U937 cells is reported as “dose-dependent decrease”.
With `CCCCCCCCCCCCn1cc(-c2noc([C@@H]3CCCN3C(=N)N)n2)c2ccccc21` [Compound 6j, (S)-Amino(2-(3-(1-dodecyl-1H-indol-3-yl)-1,2,4-oxadiazol-5-yl)pyrrolidin-1-yl)methaniminium chloride], the inhibition at 0.3 µM on human SphK2 was greater than 50%.
The same measure, in the same setting: for `CCCCCCCCCCn1cc(-c2noc([C@@H]3CCCN3C(=N)N)n2)c2ccccc21` [Compound 6h, (S)-Amino(2-(3-(1-decyl-1H-indol-3-yl)-1,2,4-oxadiazol-5-yl)pyrrolidin-1-yl)methaniminium chloride] the value was greater than 50%.
Usually Ki stands for the equilibrium dissociation constant of an inhibitor or competing ligand from its target. Regarding `O=C(NCc1ccncc1)C12CC3CC(C1)CC(c1ccc(Cl)cc1)(C3)C2` [ABC294640], the Ki on SphK2 [2] was 10 µM.
For the compound `CCCCCCCCCCn1ccc2ccc(-c3noc([C@@H]4CCCN4C(=N)N)n3)cc21` [Compound 6w, (S)-Amino(2-(3-(1-decyl-1H-indol-6-yl)-1,2,4-oxadiazol-5-yl)pyrrolidin-1-yl)methaniminium chloride], at human SphK2, the inhibition at 0.3 µM stood at 32%.
`CCCCCCCCCn1cc(-c2noc(C[C@@H]3CCCN3C(=N)N)n2)c2ccccc21.Cl` [Compound 11, (S)-Amino(2-((3-(1-nonyl-1H-indol-3-yl)-1,2,4-oxadiazol-5-yl)methyl)pyrrolidin-1-yl)methaniminium chloride]: the “effect on hSphK1 activity (in words)” value on human SphK1 is “inactive”. In addition, the “effect on hSphK2 activity (in words)” value at human SphK2 (compound 0.3 μM) was “inactive”.
